Measurements: US20030229132A1, “Small molecule modulators of apoptosis” (priority 2002, published 2003)

Target: T1, Apaf-1 (Homo sapiens, UniProt O14727)
T1 construct: resulting in full-length Apaf-XL with a C-terminal six histidine tag; six histidine tag (His6) (C); made in house; host or cells: insect cells (Hi-5), baculovirus vector pFastbacHT / pFastbacH
T1 sequence (O14727 1-1248): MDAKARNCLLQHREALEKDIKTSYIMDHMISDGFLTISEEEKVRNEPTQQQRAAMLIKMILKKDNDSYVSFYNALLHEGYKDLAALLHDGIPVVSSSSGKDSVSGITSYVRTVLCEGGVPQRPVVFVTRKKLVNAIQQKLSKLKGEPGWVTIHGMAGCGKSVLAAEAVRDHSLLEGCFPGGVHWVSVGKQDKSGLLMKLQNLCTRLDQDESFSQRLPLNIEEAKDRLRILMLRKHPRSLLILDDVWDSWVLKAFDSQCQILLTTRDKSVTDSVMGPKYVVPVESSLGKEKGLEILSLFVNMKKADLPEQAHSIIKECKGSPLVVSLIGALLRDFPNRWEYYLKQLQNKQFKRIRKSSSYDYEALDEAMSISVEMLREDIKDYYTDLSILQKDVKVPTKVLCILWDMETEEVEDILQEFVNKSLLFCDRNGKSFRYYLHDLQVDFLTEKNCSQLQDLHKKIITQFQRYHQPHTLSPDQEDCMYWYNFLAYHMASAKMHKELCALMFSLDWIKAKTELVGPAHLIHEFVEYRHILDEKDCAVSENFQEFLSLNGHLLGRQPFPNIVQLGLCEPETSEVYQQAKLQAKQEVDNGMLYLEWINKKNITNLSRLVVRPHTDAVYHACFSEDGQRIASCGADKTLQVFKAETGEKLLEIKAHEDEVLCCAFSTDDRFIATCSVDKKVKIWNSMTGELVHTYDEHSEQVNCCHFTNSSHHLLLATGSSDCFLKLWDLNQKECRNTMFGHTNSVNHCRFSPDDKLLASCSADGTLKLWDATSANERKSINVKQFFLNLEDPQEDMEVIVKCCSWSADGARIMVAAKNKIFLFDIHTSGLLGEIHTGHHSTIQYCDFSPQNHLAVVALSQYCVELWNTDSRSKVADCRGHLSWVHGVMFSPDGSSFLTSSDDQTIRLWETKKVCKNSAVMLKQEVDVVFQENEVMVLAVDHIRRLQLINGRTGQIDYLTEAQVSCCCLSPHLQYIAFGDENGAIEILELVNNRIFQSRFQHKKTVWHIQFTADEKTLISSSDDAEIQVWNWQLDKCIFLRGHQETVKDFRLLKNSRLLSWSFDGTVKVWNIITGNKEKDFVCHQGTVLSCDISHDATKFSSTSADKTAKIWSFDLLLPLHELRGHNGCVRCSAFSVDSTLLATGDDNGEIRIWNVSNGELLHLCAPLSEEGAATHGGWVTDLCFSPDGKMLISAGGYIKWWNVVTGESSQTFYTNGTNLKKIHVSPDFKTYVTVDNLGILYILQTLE
Test: Apaf-1 oligomerization by gel filtration
Assay type: biochemical
Conditions: for increase of oligomerization of Apaf-1 over the vehicle alone: 20 μM compound, 0.15 μM cyto c; for Apaf-1 complex assembly in the absence of cyto c: no cyto c
Protocol: FIG. 7 depicts activity of compounds 1-5 at low cyto c concentrations in a purified system. Apaf-1 was incubated with vehicle, cyto c, or cyto c plus 20 μM compound as indicated, and then separated on a Superose 6 gel filtration column. Individual fractions were assayed for relative Apaf-1 concentrations by capture ELISA (bar graph), or the ability to activate procaspase-3 processing in lysates (line graph). The percent of Apaf-1 in apoptosomes was determined by dividing the amount of Apaf-1 in fractions 8-11 by the total amount of Apaf-1. The extent of caspase-3 activation (given in arbitrary units) corresponds to the area under the curve for fractions 8-11 in each panel. Black bars represent fractions used for calculations.
As the compounds appeared to be acting prior to caspase activation, their effect on the oligomerization of Apaf-1 was assessed (K. Cain, D. G. Brown, C. Langlais, G. M. Cohen, J Biol Chem 274, 22686-92 (1999); K. Cain et al., J Biol Chem 275, 6067-70 (2000)). By gel filtration, Apaf-1 normally runs as a monomer of ˜140 kD (FIG. 7) (see, A. Saleh, S. M. Srinivasula, S. Acharya, R. Fishel, E. S. Alnemri, J Biol Chem 274, 17941-5 (1999)). Incubation of Apaf-1 with 5 μM cyto c induces over 90% of the Apaf-1 to form large complexes of ˜700 kD, whereas incubation with 0.15 μM cyto c concentration allowed only 22% of the Apaf-1 to assemble into complexes. However, the addition of 20 μM compound 2 or 5 at the lower cyto c concentration caused the formation of two higher molecular weight complexes: a major peak that runs at the same retention time as the complex seen at 5 μM cyto c (˜700 kD), and a minor peak that elutes in the void volume. […] To determine if the Apaf-1 complexes induced by the compounds at the lower cyto c concentration are competent for caspase activation, procaspase-9, procaspase-3, and dATP were added to fractions from the gel filtration column and assayed for caspase-3 activation. Fractions from samples that had been incubated with 5 μM cyto c strongly activated caspase-3 processing (FIG. 7, panel ii, line graph), with the maximal caspase activation corresponding to the fractions that contained the apoptosome complex. On the other hand, no fractions form the sample without cyto c activated capsase-3 processing (panel i). There was a small but measurable amount of capsase-3 activation when the cyto c concentration was reduced to 0.15 μM (panel iii). However, the extent of caspase-3 activation at the reduced level of cyto c increased approximately 4-fold when either compound 2 or 5 was added to the reaction (from 0.36 arbitrary units for the vehicle alone to 1.57 and 1.4 for compounds 2 and 5, respectively, panels iv and vi). […] Again, there was no increase in capsapse-3 activation when compounds were incubated with Apaf-1 in the absence of cyto c.
Bovine heart cyto c is purchased from Sigma and used without further purification. The XL form of Apaf-1 is cloned into pFastbacH and expressed in insect cells, resulting in full-length Apaf-XL with a C-terminal six histidine tag. Purification of Apaf-1 is according to A. Saleh, et al., J Biol Chem 274, 17941-45 (1999). 100 μL of 2 μM Apaf-1 is combined with 300 μM dATP in a mixture, with or without the further addition of 0.15 μM cyto c or compounds and heated for 30 min at 37° C.
The mixtures are next injected into a Superose 6 gel filtration column and separated at 0.4 mL/min in PBS; 0.8 mL fractions are collected 10 min after injection. […]

Compound: O=C1C(=O)N(Cc2ccc(Cl)c(Cl)c2)c2ccccc21 [Compound 2]
- increase of oligomerization of Apaf-1 over the vehicle alone: about 1.5 fold
- Apaf-1 complex assembly in the absence of cyto c: no complex assembly

Compound: O=C(NCc1ccc(Cl)c(Cl)c1)OC1CCc2ccccc21 (centres unmarked) [Compound 4]
- increase of oligomerization of Apaf-1 over the vehicle alone: no effect

Compound: O=C(NCc1ccc(Cl)c(Cl)c1)OC1CCc2ccccc21 (centres unmarked) [Compound 5]
- increase of oligomerization of Apaf-1 over the vehicle alone: about 1.5 fold
- Apaf-1 complex assembly in the absence of cyto c: no complex assembly
